Measurements as given in ChEMBL document CHEMBL4507282, “Data for DCP probe BI-1950” (2021).

Assays:
[1] = system: Phosphatidylinositol 4,5-bisphosphate 3-kinase catalytic subunit alpha isoform (Homo sapiens), P42336 [I800L]; conditions: Compound concentration 1000.0 nM
[2] = molecular target: Calcium/calmodulin-dependent protein kinase type 1D (Homo sapiens) (UniProt Q8IU85); conditions: Compound concentration 1000.0 nM
[3] = molecular target: Cyclin-dependent kinase 9 (Homo sapiens) (UniProt P50750); conditions: Compound concentration 1000.0 nM
Chain of Cyclin-dependent kinase 9 (Homo sapiens) (P50750 whole entry, canonical isoform): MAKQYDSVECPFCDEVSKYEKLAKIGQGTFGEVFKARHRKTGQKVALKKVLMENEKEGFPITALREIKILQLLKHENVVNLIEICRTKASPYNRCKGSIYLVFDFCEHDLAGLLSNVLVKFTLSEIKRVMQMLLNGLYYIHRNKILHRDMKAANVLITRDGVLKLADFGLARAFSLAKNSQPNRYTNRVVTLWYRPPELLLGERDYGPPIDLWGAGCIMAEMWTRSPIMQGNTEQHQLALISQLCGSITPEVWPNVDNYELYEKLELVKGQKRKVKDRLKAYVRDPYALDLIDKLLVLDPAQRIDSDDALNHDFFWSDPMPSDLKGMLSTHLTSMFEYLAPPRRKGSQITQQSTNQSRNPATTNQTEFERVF

[4] = molecular target: Casein kinase I isoform gamma-3 (Homo sapiens) (UniProt Q9Y6M4); conditions: Compound concentration 1000.0 nM
[5] = molecular target: Receptor-type tyrosine-protein kinase FLT3 (Homo sapiens) (UniProt P36888); conditions: Compound concentration 1000.0 nM
[6] = molecular target: Protein kinase C iota type (Homo sapiens) (UniProt P41743); conditions: Compound concentration 1000.0 nM
[7] = molecular target: Serine/threonine-protein kinase 4 (Homo sapiens) (UniProt Q13043); conditions: Compound concentration 1000.0 nM
[8] = molecular target: Fibroblast growth factor receptor 4 (Homo sapiens) (UniProt P22455); conditions: Compound concentration 1000.0 nM
[9] = molecular target: Protein kinase C theta type (Homo sapiens) (UniProt Q04759); conditions: Compound concentration 1000.0 nM
[10] = molecular target: Interleukin-1 receptor-associated kinase 1 (Homo sapiens) (UniProt P51617); conditions: Compound concentration 1000.0 nM
[11] = molecular target: cAMP-dependent protein kinase catalytic subunit alpha (Homo sapiens) (UniProt P17612); conditions: Compound concentration 1000.0 nM
[12] = molecular target: Insulin receptor (Homo sapiens) (UniProt P06213); conditions: Compound concentration 1000.0 nM
[13] = molecular target: Mitogen-activated protein kinase 10 (Homo sapiens) (UniProt P53779); conditions: Compound concentration 1000.0 nM
[14] = molecular target: Platelet-derived growth factor receptor beta (Homo sapiens) (UniProt P09619); conditions: Compound concentration 1000.0 nM
[15] = molecular target: Mitogen-activated protein kinase kinase kinase 9 (Homo sapiens) (UniProt P80192); conditions: Compound concentration 1000.0 nM
[16] = molecular target: Serine/threonine-protein kinase SIK2 (Homo sapiens) (UniProt Q9H0K1); conditions: Compound concentration 1000.0 nM
[17] = molecular target: Protein kinase C eta type (Homo sapiens) (UniProt P24723); conditions: Compound concentration 1000.0 nM
[18] = molecular target: Dual specificity mitogen-activated protein kinase kinase 6 (Homo sapiens) (UniProt P52564); conditions: Compound concentration 1000.0 nM
[19] = molecular target: G protein-coupled receptor kinase 4 (Homo sapiens) (UniProt P32298); conditions: Compound concentration 1000.0 nM
Chain of G protein-coupled receptor kinase 4 (Homo sapiens) (P32298 whole entry, looked up): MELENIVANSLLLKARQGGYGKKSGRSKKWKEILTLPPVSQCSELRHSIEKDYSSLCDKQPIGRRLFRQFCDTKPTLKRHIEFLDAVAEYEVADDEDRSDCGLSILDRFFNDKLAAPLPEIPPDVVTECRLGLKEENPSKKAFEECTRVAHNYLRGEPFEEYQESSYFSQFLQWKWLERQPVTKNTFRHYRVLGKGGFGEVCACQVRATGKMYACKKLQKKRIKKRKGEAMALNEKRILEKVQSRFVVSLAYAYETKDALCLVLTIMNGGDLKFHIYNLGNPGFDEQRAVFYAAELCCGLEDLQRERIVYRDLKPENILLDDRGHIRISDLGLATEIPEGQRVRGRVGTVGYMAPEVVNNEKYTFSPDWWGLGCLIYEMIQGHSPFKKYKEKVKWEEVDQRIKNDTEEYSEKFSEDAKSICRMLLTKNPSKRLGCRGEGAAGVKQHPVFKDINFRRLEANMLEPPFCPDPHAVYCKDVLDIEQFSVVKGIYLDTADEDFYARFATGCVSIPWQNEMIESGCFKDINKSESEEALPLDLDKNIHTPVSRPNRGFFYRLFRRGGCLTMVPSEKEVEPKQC

[20] = molecular target: Fibroblast growth factor receptor 1 (Homo sapiens) (UniProt P11362); conditions: Compound concentration 1000.0 nM
[21] = system: Tyrosine-protein kinase ABL1 (Homo sapiens), P00519 [T315I]; conditions: Compound concentration 1000.0 nM
[22] = molecular target: Receptor tyrosine-protein kinase erbB-3 (Homo sapiens) (UniProt P21860); conditions: Compound concentration 1000.0 nM
Chain of Receptor tyrosine-protein kinase erbB-3 (Homo sapiens) (P21860 whole entry): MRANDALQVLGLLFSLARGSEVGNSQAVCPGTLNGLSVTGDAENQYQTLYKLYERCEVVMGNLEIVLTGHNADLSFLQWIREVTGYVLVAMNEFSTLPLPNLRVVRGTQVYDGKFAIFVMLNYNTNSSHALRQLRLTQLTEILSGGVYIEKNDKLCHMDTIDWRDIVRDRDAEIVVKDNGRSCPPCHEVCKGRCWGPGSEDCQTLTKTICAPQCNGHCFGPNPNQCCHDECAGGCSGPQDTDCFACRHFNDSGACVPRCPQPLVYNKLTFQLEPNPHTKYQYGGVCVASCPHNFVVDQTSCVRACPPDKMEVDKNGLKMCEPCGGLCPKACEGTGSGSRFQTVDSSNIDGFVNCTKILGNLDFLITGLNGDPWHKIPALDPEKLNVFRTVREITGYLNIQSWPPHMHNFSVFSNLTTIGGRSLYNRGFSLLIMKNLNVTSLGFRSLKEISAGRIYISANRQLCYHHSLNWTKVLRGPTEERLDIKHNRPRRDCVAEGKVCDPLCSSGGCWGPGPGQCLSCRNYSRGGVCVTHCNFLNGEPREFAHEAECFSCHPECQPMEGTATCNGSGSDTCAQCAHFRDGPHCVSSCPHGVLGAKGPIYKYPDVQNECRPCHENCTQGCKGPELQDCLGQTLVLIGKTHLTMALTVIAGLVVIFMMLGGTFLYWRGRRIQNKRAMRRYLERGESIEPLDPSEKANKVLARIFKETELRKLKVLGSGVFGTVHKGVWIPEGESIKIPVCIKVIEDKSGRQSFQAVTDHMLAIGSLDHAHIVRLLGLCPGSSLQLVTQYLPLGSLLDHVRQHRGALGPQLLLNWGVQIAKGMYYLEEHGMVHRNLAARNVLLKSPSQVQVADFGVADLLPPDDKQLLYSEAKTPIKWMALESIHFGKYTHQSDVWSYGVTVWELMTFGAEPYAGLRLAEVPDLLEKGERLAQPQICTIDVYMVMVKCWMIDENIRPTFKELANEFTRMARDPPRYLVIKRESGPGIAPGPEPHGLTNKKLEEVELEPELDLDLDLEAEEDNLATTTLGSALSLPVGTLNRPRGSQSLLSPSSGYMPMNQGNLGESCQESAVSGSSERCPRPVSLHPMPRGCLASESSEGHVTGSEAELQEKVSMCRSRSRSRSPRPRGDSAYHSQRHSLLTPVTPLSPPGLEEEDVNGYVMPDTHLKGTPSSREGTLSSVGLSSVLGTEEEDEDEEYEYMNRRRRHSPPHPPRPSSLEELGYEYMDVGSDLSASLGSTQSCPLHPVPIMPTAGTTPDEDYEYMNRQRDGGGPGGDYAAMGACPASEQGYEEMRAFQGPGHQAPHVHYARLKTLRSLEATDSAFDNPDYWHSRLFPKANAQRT

[23] = molecular target: Ephrin type-A receptor 3 (Homo sapiens) (UniProt P29320); conditions: Compound concentration 1000.0 nM
[24] = molecular target: Phosphatidylinositol 4-phosphate 5-kinase type-1 alpha (Homo sapiens) (UniProt Q99755); conditions: Compound concentration 1000.0 nM
[25] = molecular target: 5-hydroxytryptamine receptor 6 (Homo sapiens) (UniProt P50406); conditions: Compound concentration 10.0 uM
[26] = molecular target: MAP kinase-activated protein kinase 5 (Homo sapiens) (UniProt Q8IW41); conditions: Compound concentration 1000.0 nM
[27] = molecular target: Tyrosine-protein kinase SYK (Homo sapiens) (UniProt P43405); conditions: Compound concentration 1000.0 nM
[28] = molecular target: Serine/threonine-protein kinase 36 (Homo sapiens) (UniProt Q9NRP7); conditions: Compound concentration 1000.0 nM
[29] = molecular target: Tyrosine-protein kinase HCK (Homo sapiens) (UniProt P08631); conditions: Compound concentration 1000.0 nM
[30] = molecular target: Ephrin type-A receptor 2 (Homo sapiens) (UniProt P29317); conditions: Compound concentration 1000.0 nM
[31] = molecular target: Mitogen-activated protein kinase kinase kinase 15 (Homo sapiens) (UniProt Q6ZN16); conditions: Compound concentration 1000.0 nM
[32] = molecular target: Calcium/calmodulin-dependent protein kinase type II subunit alpha (Homo sapiens) (UniProt Q9UQM7); conditions: Compound concentration 1000.0 nM
[33] = molecular target: High affinity nerve growth factor receptor (Homo sapiens) (UniProt P04629); conditions: Compound concentration 1000.0 nM
[34] = molecular target: Mitogen-activated protein kinase kinase kinase 6 (Homo sapiens) (UniProt O95382); conditions: Compound concentration 1000.0 nM
Chain of Mitogen-activated protein kinase kinase kinase 6 (Homo sapiens) (O95382 whole entry): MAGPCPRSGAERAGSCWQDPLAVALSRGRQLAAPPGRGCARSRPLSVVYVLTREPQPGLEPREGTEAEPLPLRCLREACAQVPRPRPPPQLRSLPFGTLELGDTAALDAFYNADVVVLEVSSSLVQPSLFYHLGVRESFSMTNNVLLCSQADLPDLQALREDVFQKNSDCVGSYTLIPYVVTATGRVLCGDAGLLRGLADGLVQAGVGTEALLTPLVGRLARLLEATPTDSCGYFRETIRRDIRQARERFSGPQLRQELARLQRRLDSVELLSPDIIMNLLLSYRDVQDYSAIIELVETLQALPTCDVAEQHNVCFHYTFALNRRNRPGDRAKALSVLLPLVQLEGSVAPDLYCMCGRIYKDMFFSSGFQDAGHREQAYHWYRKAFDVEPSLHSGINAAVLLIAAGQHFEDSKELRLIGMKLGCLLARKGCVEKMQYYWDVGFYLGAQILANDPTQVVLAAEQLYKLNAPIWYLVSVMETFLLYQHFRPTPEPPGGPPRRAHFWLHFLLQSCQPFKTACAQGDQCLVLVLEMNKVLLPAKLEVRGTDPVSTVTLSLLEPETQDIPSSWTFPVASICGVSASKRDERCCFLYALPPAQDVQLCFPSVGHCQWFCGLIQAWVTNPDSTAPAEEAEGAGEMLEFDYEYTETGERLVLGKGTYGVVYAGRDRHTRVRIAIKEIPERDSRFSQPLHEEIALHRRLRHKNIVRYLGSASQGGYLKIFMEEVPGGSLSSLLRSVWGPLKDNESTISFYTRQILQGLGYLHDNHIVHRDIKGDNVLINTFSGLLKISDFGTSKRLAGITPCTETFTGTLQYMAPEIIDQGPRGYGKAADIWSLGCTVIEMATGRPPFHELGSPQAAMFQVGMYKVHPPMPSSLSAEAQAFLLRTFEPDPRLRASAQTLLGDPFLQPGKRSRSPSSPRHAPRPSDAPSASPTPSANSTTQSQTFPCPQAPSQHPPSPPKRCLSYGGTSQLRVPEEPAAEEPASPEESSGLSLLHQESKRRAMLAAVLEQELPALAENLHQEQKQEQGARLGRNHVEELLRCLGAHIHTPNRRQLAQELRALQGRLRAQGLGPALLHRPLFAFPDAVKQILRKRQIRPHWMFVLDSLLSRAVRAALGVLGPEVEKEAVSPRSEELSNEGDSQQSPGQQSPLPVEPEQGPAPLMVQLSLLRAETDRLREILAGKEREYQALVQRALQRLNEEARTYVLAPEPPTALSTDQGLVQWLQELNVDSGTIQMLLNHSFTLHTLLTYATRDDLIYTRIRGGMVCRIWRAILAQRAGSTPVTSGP

[35] = molecular target: 5'-AMP-activated protein kinase catalytic subunit alpha-1 (Homo sapiens) (UniProt Q13131); conditions: Compound concentration 1000.0 nM
[36] = molecular target: Mitogen-activated protein kinase 11 (Homo sapiens) (UniProt Q15759); conditions: Compound concentration 1000.0 nM
Chain of Mitogen-activated protein kinase 11 (Homo sapiens) (Q15759 whole entry): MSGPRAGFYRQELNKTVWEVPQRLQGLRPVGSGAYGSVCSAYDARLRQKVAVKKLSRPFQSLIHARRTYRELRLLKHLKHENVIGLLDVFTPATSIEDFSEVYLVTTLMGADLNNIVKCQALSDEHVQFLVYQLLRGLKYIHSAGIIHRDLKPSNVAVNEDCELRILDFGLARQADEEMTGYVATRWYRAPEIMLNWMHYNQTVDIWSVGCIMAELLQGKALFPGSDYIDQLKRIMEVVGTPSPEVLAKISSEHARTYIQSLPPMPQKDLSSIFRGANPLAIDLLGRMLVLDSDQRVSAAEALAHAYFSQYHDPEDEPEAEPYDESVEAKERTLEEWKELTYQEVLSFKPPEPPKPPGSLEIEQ

[37] = molecular target: Serine/threonine-protein kinase PLK4 (Homo sapiens) (UniProt O00444); conditions: Compound concentration 1000.0 nM
[38] = molecular target: Serine/threonine-protein kinase WNK3 (Homo sapiens) (UniProt Q9BYP7); conditions: Compound concentration 1000.0 nM
[39] = molecular target: Calcium/calmodulin-dependent protein kinase kinase 1 (Homo sapiens) (UniProt Q8N5S9); conditions: Compound concentration 1000.0 nM
[40] = molecular target: Casein kinase I isoform alpha (Homo sapiens) (UniProt P48729); conditions: Compound concentration 1000.0 nM
[41] = molecular target: Dual specificity mitogen-activated protein kinase kinase 4 (Homo sapiens) (UniProt P45985); conditions: Compound concentration 1000.0 nM
[42] = molecular target: Citron Rho-interacting kinase (Homo sapiens) (UniProt O14578); conditions: Compound concentration 1000.0 nM
[43] = molecular target: Homeodomain-interacting protein kinase 2 (Homo sapiens) (UniProt Q9H2X6); conditions: Compound concentration 1000.0 nM
[44] = molecular target: Mitogen-activated protein kinase kinase kinase kinase 3 (Homo sapiens) (UniProt Q8IVH8); conditions: Compound concentration 1000.0 nM
Chain of Mitogen-activated protein kinase kinase kinase kinase 3 (Homo sapiens) (Q8IVH8 whole entry): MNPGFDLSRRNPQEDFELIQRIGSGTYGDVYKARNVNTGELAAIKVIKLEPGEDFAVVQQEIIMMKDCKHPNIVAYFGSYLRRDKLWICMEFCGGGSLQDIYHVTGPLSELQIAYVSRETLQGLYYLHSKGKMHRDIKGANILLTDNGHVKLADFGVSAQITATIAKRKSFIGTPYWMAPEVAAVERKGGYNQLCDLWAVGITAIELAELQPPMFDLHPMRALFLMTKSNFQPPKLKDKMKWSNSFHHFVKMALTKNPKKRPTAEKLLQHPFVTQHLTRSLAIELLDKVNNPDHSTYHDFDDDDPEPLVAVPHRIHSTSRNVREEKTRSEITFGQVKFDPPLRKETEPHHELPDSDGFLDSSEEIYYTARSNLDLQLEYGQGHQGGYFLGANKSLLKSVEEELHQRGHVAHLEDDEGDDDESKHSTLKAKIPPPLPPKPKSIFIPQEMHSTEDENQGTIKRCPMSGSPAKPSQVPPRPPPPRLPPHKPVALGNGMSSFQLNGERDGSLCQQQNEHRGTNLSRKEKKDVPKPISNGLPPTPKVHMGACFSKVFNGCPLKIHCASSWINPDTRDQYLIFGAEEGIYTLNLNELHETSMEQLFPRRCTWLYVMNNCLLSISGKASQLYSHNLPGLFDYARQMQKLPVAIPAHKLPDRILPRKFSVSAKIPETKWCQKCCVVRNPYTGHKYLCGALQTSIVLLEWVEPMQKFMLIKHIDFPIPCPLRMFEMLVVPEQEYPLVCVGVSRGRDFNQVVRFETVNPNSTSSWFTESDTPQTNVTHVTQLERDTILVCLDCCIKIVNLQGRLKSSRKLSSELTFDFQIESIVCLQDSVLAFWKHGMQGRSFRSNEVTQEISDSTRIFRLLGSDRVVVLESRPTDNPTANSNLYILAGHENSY

[45] = molecular target: Myosin light chain kinase, smooth muscle (Homo sapiens) (UniProt Q15746); conditions: Compound concentration 1000.0 nM

C[C@H](NC(=O)c1cnc2n1[C@](C)(Cc1ccc(C#N)cc1)C(=O)N2c1cc(Cl)c(F)c(Cl)c1)C(=O)NC1(c2ccccn2)CC1 [BI 1950]
inactive: residual activity [1] 100% | residual activity [2] 99% | residual activity [3] 100% | residual activity [4] 100% | residual activity [5] 100% | residual activity [6] 100% | residual activity [7] 100% | residual activity [8] 100% | residual activity [9] 100% | residual activity [10] 100% | residual activity [11] 100% | residual activity [12] 100% | residual activity [13] 91% | residual activity [14] 91% | residual activity [15] 100% | residual activity [16] 100% | residual activity [17] 90% | residual activity [18] 80% | residual activity [19] 100% | residual activity [20] 100% | residual activity [21] 85% | residual activity [22] 100% | residual activity [23] 88% | residual activity [24] 100% | inhibition [25] 6.67% | residual activity [26] 96% | residual activity [27] 100% | residual activity [28] 100% | residual activity [29] 100% | residual activity [30] 75% | residual activity [31] 76% | residual activity [32] 96% | residual activity [33] 98% | residual activity [34] 100% | residual activity [35] 100% | residual activity [36] 100% | residual activity [37] 88% | residual activity [38] 78% | residual activity [39] 100% | residual activity [40] 100% | residual activity [41] 100% | residual activity [42] 100% | residual activity [43] 100% | residual activity [44] 100% | residual activity [45] 100%

C[C@@]1(Cc2ccc(C#N)cc2)C(=O)N(c2cc(Cl)cc(Cl)c2)c2ncc(C(=O)NC3(c4nc(C5CCC5)no4)CC3)n21 [BI 9446]
inactive: residual activity [1] 88% | residual activity [2] 100% | residual activity [3] 100% | residual activity [4] 100% | residual activity [5] 100% | residual activity [6] 87% | residual activity [7] 92% | residual activity [8] 96% | residual activity [9] 98% | residual activity [10] 100% | residual activity [11] 100% | residual activity [12] 89% | residual activity [13] 100% | residual activity [14] 100% | residual activity [15] 100% | residual activity [16] 100% | residual activity [17] 100% | residual activity [18] 80% | residual activity [19] 100% | residual activity [20] 100% | residual activity [21] 100% | residual activity [22] 96% | residual activity [23] 83% | residual activity [24] 100% | inhibition [25] 16.1% | residual activity [26] 100% | residual activity [27] 100% | residual activity [28] 100% | residual activity [29] 100% | residual activity [30] 56% | residual activity [31] 81% | residual activity [32] 89% | residual activity [33] 100% | residual activity [34] 82% | residual activity [35] 100% | residual activity [36] 100% | residual activity [37] 90% | residual activity [38] 100% | residual activity [39] 100% | residual activity [40] 100% | residual activity [41] 100% | residual activity [42] 100% | residual activity [43] 100% | residual activity [44] 78% | residual activity [45] 100%
